Patent publication US10336761B2, “TGFβ receptor antagonist” (BRISTOL-MYERS SQUIBB COMPANY, priority 2015, dated 2019)

Biological target: HIS-TGFβR1 T204D (Homo sapiens (Human), UniProt P36897, T204D)
Assay: HTRF probe-displacement assay, HIS-TGFβR1 T204D
Assay type: binding
Conditions: 1 hour at room temperature

HIS-TGFβR1 T204D, sequence (P36897 34-503 T204D): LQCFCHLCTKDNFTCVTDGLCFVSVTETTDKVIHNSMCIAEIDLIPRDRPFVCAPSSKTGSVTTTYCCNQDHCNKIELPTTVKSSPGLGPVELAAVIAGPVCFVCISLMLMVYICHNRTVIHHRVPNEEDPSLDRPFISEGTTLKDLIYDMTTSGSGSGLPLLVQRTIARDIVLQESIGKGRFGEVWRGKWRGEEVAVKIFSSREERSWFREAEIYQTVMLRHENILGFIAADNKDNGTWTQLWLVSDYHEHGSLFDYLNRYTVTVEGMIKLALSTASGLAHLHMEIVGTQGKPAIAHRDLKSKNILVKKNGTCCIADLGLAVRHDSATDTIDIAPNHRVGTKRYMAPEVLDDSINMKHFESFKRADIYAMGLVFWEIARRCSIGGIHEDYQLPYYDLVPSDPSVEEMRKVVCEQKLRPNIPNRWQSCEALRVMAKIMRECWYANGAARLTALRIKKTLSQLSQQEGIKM

Structure (SMILES)	IC50
Fc1cnccc1Nc1nc(-c2ccccn2)nn2ccc(CNC3CCCNC3)c12 (stereo not drawn) [Example 267, 3-fluoro-N-(5-{[(piperidin-3-yl)amino]methyl}-2-(pyridin-2-yl)pyrrolo[2,1-f][1,2,4]triazin-4-yl)pyridin-4-amine]	2.4 nM
O[C@H]1CCN(Cc2ccn3nc(-c4cccc(C(F)F)n4)nc(Nc4ccncc4F)c23)C1 [Example 251, (3S)-1-({2-[6-(difluoromethyl)pyridin-2-yl]-4-[(3-fluoropyridin-4-yl)amino]pyrrolo[2,1-f][1,2,4]triazin-5-yl}methyl)pyrrolidin-3-ol]	0.59 nM
COc1cccc(-c2nc(Nc3ccncc3F)c3cc(NC(=O)N4CCOCC4)cn3n2)n1 [Example 105, N-{4-[(3-fluoropyridin-4-yl)amino]-2-(6-methoxypyridin-2-yl)pyrrolo[2,1-f][1,2,4]triazin-6-yl}morpholine-4-carboxamide]	690 nM
COc1cccc(-c2nc(Nc3ccncc3F)c3cc(C(C)(C)O)cn3n2)n1 [Example 39, 2-{4-[(3-fluoropyridin-4-yl)amino]-2-(6-methoxypyridin-2-yl)pyrrolo[2,1-f][1,2,4]triazin-6-yl}propan-2-ol]	1600 nM
C=CCOc1cnccc1Nc1nc(-c2ccccn2)nn2cccc12 [Example 79, 3-(prop-2-en-1-yloxy)-N-[2-(pyridin-2-yl)pyrrolo[2,1-f][1,2,4]triazin-4-yl]pyridin-4-amine]	13 nM
COc1cccc(-c2nc(Nc3ccncc3COCCCN3CCOCC3)c3cccn3n2)n1 [Example 38, N-[2-(6-methoxypyridin-2-yl)pyrrolo[2,1-f][1,2,4]triazin-4-yl]-3-{[3-(morpholin-4-yl)propoxy]methyl}pyridin-4-amine]	680 nM
O=C(NCCN1CCCC1)c1cnccc1Nc1nc(-c2ccccn2)nn2cccc12 [Example 142]	19 nM
COc1cccc(-c2nc(Nc3ccncc3F)c3cc(NC(=O)CN4CCOCC4)cn3n2)n1 [Example 106, N-{4-[(3-fluoropyridin-4-yl)amino]-2-(6-methoxypyridin-2-yl)pyrrolo[2,1-f][1,2,4]triazin-6-yl}-2-(morpholin-4-yl)acetamide]	1400 nM
OC1CCCCC1NCc1ccn2nc(-c3ccccn3)nc(Nc3ccncc3F)c12 (stereo not drawn) [Example 272, 2-[({4-[(3-fluoropyridin-4-yl)amino]-2-(pyridin-2-yl)pyrrolo[2,1-f][1,2,4]triazin-5-yl}methyl)amino]cyclohexan-1-ol]	1.1 nM
Fc1cnccc1Nc1nc(-c2ccccn2)nn2ccc(CNCCCN3CCOCC3)c12 [Example 246, 3-fluoro-N-[5-({[3-(morpholin-4-yl)propyl]amino}methyl)-2-(pyridin-2-yl)pyrrolo[2,1-f][1,2,4]triazin-4-yl]pyridin-4-amine]	3.9 nM
COc1cccc(-c2nc(Nc3ccncc3F)c3c(CCN4CCC(N)CC4)ccn3n2)n1 [Example 114, N-{5-[2-(4-aminopiperidin-1-yl)ethyl]-2-(6-methoxypyridin-2-yl)pyrrolo[2,1-f][1,2,4]triazin-4-yl}-3-fluoropyridin-4-amine]	260 nM
Fc1cnccc1Nc1nc(-c2ccccn2)nn2ccc(CNCCN3CCCCC3)c12 [Example 284, 3-fluoro-N-[5-({[2-(piperidin-1-yl)ethyl]amino}methyl)-2-(pyridin-2-yl)pyrrolo[2,1-f][1,2,4]triazin-4-yl]pyridin-4-amine]	4.4 nM
COc1cccc(-c2nc(Nc3ccncc3)c3c(C)ccn3n2)n1 [Example 16, N-[2-(6-methoxypyridin-2-yl)-5-methylpyrrolo[2,1-f][1,2,4]triazin-4-yl]pyridin-4-amine]	9.4 nM
Cc1csc(-c2nc(Nc3ccncc3F)c3cccn3n2)n1 [Example 12, 3-fluoro-N-[2-(4-methyl-1,3-thiazol-2-yl)pyrrolo[2,1-f][1,2,4]triazin-4-yl]pyridin-4-amine]	0.8 nM
Oc1cccc(N2CCN(Cc3ccn4nc(-c5ccccn5)nc(Nc5ccncc5F)c34)CC2)c1 [Example 275, 3-[4-({4-[(3-fluoropyridin-4-yl)amino]-2-(pyridin-2-yl)pyrrolo[2,1-f][1,2,4]triazin-5-yl}methyl)piperazin-1-yl]phenol]	0.47 nM

The remaining lines, values ahead:

IC50	Structure (SMILES)
3.5 nM	Cc1cccc(-c2nc(Nc3ccncc3C(=O)NCCCN3CCN(C)CC3)c3cccn3n2)n1 [Example 160, N-[3-(4-methylpiperazin-1-yl)propyl]-4-{[2-(6-methylpyridin-2-yl)pyrrolo[2,1-f][1,2,4]triazin-4-yl]amino}pyridine-3-carboxamide]
1.3 nM	O=C(CN1CCNCC1)Nc1cc(Nc2nc(-c3cccc(C(F)(F)F)n3)nn3cccc23)ccn1 [Example 322, 2-(piperazin-1-yl)-N-[4-({2-[6-(trifluoromethyl)pyridin-2-yl]pyrrolo[2,1-f][1,2,4]triazin-4-yl}amino)pyridin-2-yl]acetamide]
15 nM	Fc1cnccc1Nc1nc(-c2ccnc(C(F)(F)F)n2)nn2cccc12 [Example 100, 3-fluoro-N-{2-[2-(trifluoromethyl)pyrimidin-4-yl]pyrrolo[2,1-f][1,2,4]triazin-4-yl}pyridin-4-amine]
50 nM	Cc1cccc(-c2nc(Nc3ccncc3C(=O)NCC(C)(C)O)c3cccn3n2)n1 [Example 156, N-(2-hydroxy-2-methylpropyl)-4-{[2-(6-methylpyridin-2-yl)pyrrolo[2,1-f][1,2,4]triazin-4-yl]amino}pyridine-3-carboxamide]
650 nM	COc1cccc(-c2nc(Nc3ccnc(F)c3)c3c(C)ccn3n2)n1 [Example 96, 2-fluoro-N-[2-(6-methoxypyridin-2-yl)-5-methylpyrrolo[2,1-f][1,2,4]triazin-4-yl]pyridin-4-amine]
180 nM	COc1cccc(-c2nc(Nc3ccncc3NC(C)=O)c3cccn3n2)n1 [Example 47, N-(4-{[2-(6-methoxypyridin-2-yl)pyrrolo[2,1-f][1,2,4]triazin-4-yl]amino}pyridin-3-yl)acetamide]
2900 nM	COc1cccc(-c2nc(Nc3ccnc(N4CCOCC4)c3)c3cccn3n2)n1 [Example 99, N-[2-(6-methoxypyridin-2-yl)pyrrolo[2,1-f][1,2,4]triazin-4-yl]-2-(morpholin-4-yl)pyridin-4-amine]
14 nM	Cc1cccc(-c2nc(Nc3ccncc3C(=O)NC3COC3)c3cccn3n2)n1 [Example 165, 4-{[2-(6-methylpyridin-2-yl)pyrrolo[2,1-f][1,2,4]triazin-4-yl]amino}-N-(oxetan-3-yl)pyridine-3-carboxamide]
1.8 nM	COCCC(=O)Nc1cc(Nc2nc(-c3cccc(C(F)(F)F)n3)nn3cccc23)ccn1 [Example 343, 3-methoxy-N-[4-({2-[6-(trifluoromethyl)pyridin-2-yl]pyrrolo[2,1-f][1,2,4]triazin-4-yl}amino)pyridin-2-yl]propanamide]
12 nM	CS(=O)(=O)Nc1cccc(-c2nc(Nc3ccncc3F)c3cccn3n2)n1 [Example 77, N-(6-{4-[(3-fluoropyridin-4-yl)amino]pyrrolo[2,1-f][1,2,4]triazin-2-yl}pyridin-2-yl)methanesulfonamide]
70 nM	CC(O)c1cccc(-c2nc(Nc3ccncc3F)c3cccn3n2)n1 (stereo not drawn) [Example 32, 1-(6-{4-[(3-fluoropyridin-4-yl)amino]pyrrolo[2,1-f][1,2,4]triazin-2-yl}pyridin-2-yl)ethan-1-ol]
0.89 nM	CCC(=O)Nc1cc(Nc2nc(-c3cccc(C(F)(F)F)n3)nn3cccc23)ccn1 [Example 313, N-[4-({2-[6-(trifluoromethyl)pyridin-2-yl]pyrrolo[2,1-f][1,2,4]triazin-4-yl}amino)pyridin-2-yl]propanamide]
0.9 nM	O=C(CN1CCCC1)Nc1cc(Nc2nc(-c3cccc(C(F)F)n3)nn3cccc23)ccn1 [Example 33, N-[4-({2-[6-(difluoromethyl)pyridin-2-yl]pyrrolo[2,1-f][1,2,4]triazin-4-yl}amino)pyridin-2-yl]-2-(pyrrolidin-1-yl)acetamide]
53 nM	CCOC(=O)CCNC(=O)c1cnccc1Nc1nc(-c2cccc(C(F)F)n2)nn2cccc12 [Example 204, Ethyl 3-{[4-({2-[6-(difluoromethyl)pyridin-2-yl]pyrrolo[2,1-f][1,2,4]triazin-4-yl}amino)pyridin-3-yl]formamido}propanoate]
3.9 nM	O=C(NCCO)c1cnccc1Nc1nc(-c2cccc(C(F)F)n2)nn2cccc12 [Example 192, 4-({2-[6-(difluoromethyl)pyridin-2-yl]pyrrolo[2,1-f][1,2,4]triazin-4-yl}amino)-N-(2-hydroxyethyl)pyridine-3-carboxamide]
4400 nM	CC(C)(O)CNC(=O)c1cc(Nc2nc(-c3cccc(C(F)(F)F)n3)nn3cccc23)ccn1 [Example 324, N-(2-hydroxy-2-methylpropyl)-4-({2-[6-(trifluoromethyl)pyridin-2-yl]pyrrolo[2,1-f][1,2,4]triazin-4-yl}amino)pyridine-2-carboxamide]
32 nM	O=C(c1cnccc1Nc1nc(-c2cccc(C(F)F)n2)nn2cccc12)N1CCCC1 [Example 186, N-{2-[6-(difluoromethyl)pyridin-2-yl]pyrrolo[2,1-f][1,2,4]triazin-4-yl}-3-(pyrrolidine-1-carbonyl)pyridin-4-amine]
33 nM	CCOC(=O)c1cc2c(Nc3ccncc3)nc(-c3cccc(C)n3)nn2c1 [Example 216, Ethyl 2-(6-methylpyridin-2-yl)-4-[(pyridin-4-yl)amino]pyrrolo[2,1-f][1,2,4]triazine-6-carboxylate]
23 nM	O=C(NC1CCC1)c1cnccc1Nc1nc(-c2cccc(C(F)F)n2)nn2cccc12 [Example 193, N-cyclobutyl-4-({2-[6-(difluoromethyl)pyridin-2-yl]pyrrolo[2,1-f][1,2,4]triazin-4-yl}amino)pyridine-3-carboxamide]
3.7 nM	Fc1cnccc1Nc1nc(-c2cccc(C(F)(F)F)n2)nn2cccc12 [Example 84, 3-fluoro-N-{2-[6-(trifluoromethyl)pyridin-2-yl]pyrrolo[2,1-f][1,2,4]triazin-4-yl}pyridin-4-amine]
1500 nM	COc1cccc(-c2nc(Nc3ccnc(C)c3)c3cccn3n2)n1 [Example 92, N-[2-(6-methoxypyridin-2-yl)pyrrolo[2,1-f][1,2,4]triazin-4-yl]-2-methylpyridin-4-amine]
